Among the data in patent publication US9993001B2, “Herbicidal composition” (ISHIHARA SANGYO KAISHA, LTD., priority 2014, dated 2018) are inhibition values, retold here.

As usually defined, the inhibition is the drop in the measured response relative to a control, in per cent.

Assay type in all cases: in vivo
In test [1] the test system is barnyardgrass (Echinochloa crus-qalli L.). Nature of the test: Test Example 1: soybean field, soil treatment, metobromuron + chlorpropham. The following applies: soil, read-out: Growth inhibition rate of barnyardgrass (%) Measured value. An excerpt:
When the herbicidal activity in a case where two active ingredients are combined, is larger than the simple sum of the respective herbicidal activities of the two active ingredients (the expected activity), it is called a synergistic effect. The activity expected by the combination of two active ingredients can be calculated as follows (Colby S. R., “Weed”, vol. 15, p. 20-22, 1967). E=α+β−(α×β[…]) where α: growth inhibition rate when treated with x (g/ha) of herbicide X, • β: growth inhibition rate when treated with y (g/ha) of herbicide Y, • E: growth inhibition rate expected when treated with x (g/ha) of herbicide X and y (g/ha) of herbicide Y. […]
On the 19th day after treatment, the state of growth of barnyardgrass was visually observed and evaluated in accordance with the following standards. The growth inhibition rate (%) [measured value] and the growth inhibition rate (%) [calculated value] calculated by the Colby's method, are shown in Table 2. […]

Test [2] concerns common purslane (Portulaca oleracea L.). Nature of the test: Test Example 12: corn field, soil treatment, metobromuron + nicosulfuron. The following applies: soil, read-out: Growth inhibition rate of common purslane (%) Measured value. The source says: (§1) When the herbicidal activity in a case where two active ingredients are combined, is larger than the simple sum of the respective herbicidal activities of the two active ingredients (the expected activity), it is called a synergistic effect. The activity expected by the combination of two active ingredients can be calculated as follows (Colby S. R., “Weed”, vol. 15, p. 20-22, 1967). E=α+β−(α×β[…]) where α: growth inhibition rate when treated with x (g/ha) of herbicide X, • β: growth inhibition rate when treated with y (g/ha) of herbicide Y, • E: growth inhibition rate expected when treated with x (g/ha) of herbicide X and y (g/ha) of herbicide Y.
(§2) On the 19th day after treatment, the state of growth of barnyardgrass was visually observed and evaluated in accordance with the following standards. The growth inhibition rate (%) [measured value] and the growth inhibition rate (%) [calculated value] calculated by the Colby's method, are shown in Table 2.
Growth inhibition rate (%)=inhibition rate) (%) of 0 (equivalent to the non-treated area) to 100 (complete kill) […]
On the 30th day after treatment, the state of growth of common purslane (Portulaca oleracea L.) which occurred naturally, was visually observed and evaluated in the same manner as in Test Example 1.

Test [3] relates to giant foxtail (Setaria faberi Herrm.). Nature of the test: Test Example 16: pot, soil treatment, metobromuron + chlorpropham. Particulars: soil, read-out: Growth inhibition rate of giant foxtail (%) Measured value.
From the text: as §1, §2
(§3) Growth inhibition rate (%)=inhibition rate) (%) of 0 (equivalent to the non-treated area) to 100 (complete kill)
(§4) Soil was put into a 1/300,000 ha pot, and seeds of barnyardgrass (Echinochloa crus-galli L.) were sown. On the day after seeding, predetermined amounts of SC containing metobromuron as active ingredient (same as in Test Example 1) and EC containing chlorpropham as active ingredient (same as in Test Example 1) were diluted with water corresponding to 1,000 L per hectare and applied for soil treatment.
(§5) On the 21st day after treatment, the state of growth of barnyardgrass was visually observed and evaluated in the same manner as in Test Example 1.
The test was carried out in the same manner as in Test Example 15 except that barnyardgrass (Echinochloa crus-galli L.) was changed to giant foxtail (Setaria faberi Herrm.), to obtain the results as shown in Table 17.

The subject of test [4] is common lambsquarters (Chenopodium album L.). Put plainly: Test Example 20: pot, soil treatment, metobromuron + chlorpropham. Particulars: soil, read-out: Growth inhibition rate of common lambsquarters (%) Measured value.
From the text: as §1, §2, §3, §4
On the 26th day after treatment, the state of growth of barnyardgrass was visually observed and evaluated in the same manner as in Test Example 1.
The test was carried out in the same manner as in Test Example 18 except that barnyardgrass (Echinochloa crus-galli L.) was changed to common lambsquarters (Chenopodium album L.), to obtain the results as shown in Table 21.

In test [5] the test system is barnyardgrass (Echinochloa crus-qalli L.). Put plainly: Test Example 21: pot, soil treatment, metobromuron + prometryn. Particulars: soil, read-out: Growth inhibition rate of barnyardgrass (%) Measured value.
From the text: as §1, §2, §3
Soil was put into a 1/300,000 ha pot, and seeds of barnyardgrass (Echinochloa crus-qalli L.) were sown. On the day after seeding, predetermined amounts of SC containing metobromuron as active ingredient (same as in Test Example 1) and WP containing prometryn as active ingredient (trade name: Gesagard 50, manufactured by Nippon Kayaku Co., Ltd.) were diluted with water corresponding to 1,000 L per hectare and applied for soil treatment.
as §5

The subject of test [6] is common lambsquarters (Chenopodium album L.). Put plainly: Test Example 24: pot, soil treatment, metobromuron + trifluralin. Particulars: soil, read-out: Growth inhibition rate of common lambsquarters (%) Measured value.
From the text: as §1, §2, §3
Soil was put into a 1/300,000 ha pot, and seeds of common lambsquarters (Chenopodium album L.) were sown. On the day after seeding, predetermined amounts of SC containing metobromuron as active ingredient (same as in Test Example 1) and EC containing trifluralin as active ingredient (same as in Test Example 4) were diluted with water corresponding to 1,000 L per hectare and applied for soil treatment.
On the 21st day after treatment, the state of growth of common lambsquarters was visually observed and evaluated in the same manner as in Test Example 1.

Test [7] deals with common chickweed (Stellaria media L.). Nature of the test: Test Example 25: pot, soil treatment, metobromuron + trifluralin. The following applies: soil, read-out: Growth inhibition rate of common chickweed (%) Measured value.
Test [8] concerns black nightshade (Solanum nigrum L.). Put plainly: Test Example 27: pot, soil treatment, metobromuron + flufenacet. Particulars: soil, read-out: Growth inhibition rate of black nightshade (%) Measured value.
From the text: as §1, §2, §3
Soil was put into a 1/300,000 ha pot, and seeds of black nightshade (Solanum nigrum L.) were sown. On the day after seeding, predetermined amounts of SC containing metobromuron as active ingredient (same as in Test Example 1) and EC containing prosulfocarb as active ingredient (trade name: BOXER NYUZAI, manufactured by Syngenta) were diluted with water corresponding to 1,000 L per hectare and applied for soil treatment.
On the 21st day after treatment, the state of growth of black nightshade was visually observed and evaluated in the same manner as in Test Example 1.
The test was carried out in the same manner as in Test Example 26 except that EC containing prosulfocarb as active ingredient was changed to SC containing flufenacet as active ingredient (trade name: Cadou, manufactured by Bayer CropScience), to obtain the results as shown in Table 28.

For test [9] the test system is unchanged. Nature of the test: Test Example 31: pot, soil treatment, metobromuron + thiobencarb. Particulars: soil, read-out: Growth inhibition rate of black nightshade (%) Measured value.
From the text: as §1, §2, §3
Soil was put into a 1/300,000 ha pot, and seeds of common lambsquarters (Chenopodium album L.) were sown. On the day after seeding, predetermined amounts of SC containing metobromuron as active ingredient (same as in Test Example 1) and EC containing thiobencarb as active ingredient (trade name: Saturn NYUZAI, manufactured by KUMIAI CHEMICAL INDUSTRY Co., Ltd.) were diluted with water corresponding to 1,000 L per hectare and applied for soil treatment.
On the 20th day after treatment, the state of growth of common lambsquarters was visually observed and evaluated in the same manner as in Test Example 1.
The test was carried out in the same manner as in Test Example 30 except that common lambsquarters (Chenopodium album L.) was changed to black nightshade (Solanum nigrum L.), to obtain the results as shown in Table 32.

For the compound `CON(C)C(=O)Nc1ccc(Br)cc1` [Metobromuron, 3-(4-bromophenyl)-1-methoxy-1-methylurea], the inhibition at 1000 g/ha in test [1] is 58%; in test [2] it was 85%; in [3], 78%; in test [5], 43%. In test [4], the inhibition at 188 g/ha was found to be 50%. For the same compound, the inhibition at 750 g/ha in test [5] came out at 20%. For the same compound, the inhibition at 1500 g/ha in test [5] was 72%. The inhibition at 375 g/ha was found to be 50% in test [6], 50% in test [8] and 65% in [9]. For the same compound, the results for the inhibition at 250 g/ha in [7] and in test [8] were 73% and 25%, respectively. In addition, the inhibition at 562.5 g/ha in test [8] turned out to be 68%; in [9], 76%.
